# Measurements from PubChem BioAssay (NCI).
#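 Growth conditions: 96-well plates. Treatment: test compound, 48 hours, 5 concentrations. Analysis: linear interpolation between bracketing concentrations; unreached endpoints set to highest concentration. Here, GI50 denotes the concentration required for 50% inhibition of growth. Definition used: TGI = concentration required for complete inhibition of growth.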
# What was measured:
# Assay in all cases: growth of human tumour cells (NCI), 48 h
# [1] = tested on: CAKI-1 renal
# [2] = tested on: COLO 205 colon
# [3] = tested on: HCT-15 colon
# [4] = tested on: OVCAR-5 ovarian
# [5] = tested on: HCC-2998 colon
# [6] = tested on: OVCAR-3 ovarian
# [7] = tested on: SNB-75 CNS
# [8] = tested on: RPMI-8226 leukemia
# [9] = tested on: NCI-H23 lung
# [10] = tested on: HCT-116 colon
# [11] = tested on: TK-10 renal
# [12] = tested on: M14 melanoma
# [13] = tested on: OVCAR-8 ovarian
# [14] = tested on: HOP-18 NSCLC
# [15] = tested on: SN12C renal
# [16] = tested on: SNB-19 CNS
# [17] = tested on: NCI-H226 lung
# [18] = tested on: UO-31 renal
# [19] = tested on: SF-539 CNS
# [20] = tested on: M19-MEL melanoma
# [21] = tested on: DLD-1 colon
# [22] = tested on: SK-MEL-2 melanoma
# [23] = tested on: SR leukemia
# [24] = tested on: UACC-62 melanoma
# [25] = tested on: 786-0 renal
# [26] = tested on: SK-MEL-28 melanoma
# [27] = tested on: IGROV1 ovarian
# [28] = tested on: SW-620 colon
# [29] = tested on: U251 CNS
# [30] = tested on: EKVX NSCLC
# [31] = tested on: NCI-H460 lung
# [32] = tested on: LXFL 529 NSCLC
# [33] = tested on: RXF 393 renal
# [34] = tested on: SNB-78 CNS
# [35] = tested on: MALME-3M melanoma
# [36] = tested on: DMS 114 small cell lung
# [37] = tested on: KM20L2 colon
# [38] = tested on: SF-295 CNS
# [39] = tested on: NCI-H522 lung
# [40] = tested on: SF-268 CNS
# [41] = tested on: A549 NSCLC
# [42] = tested on: OVCAR-4 ovarian
# [43] = tested on: DMS 273 small cell lung
# [44] = tested on: SK-MEL-5 melanoma
# [45] = tested on: HL-60(TB) leukemia
# [46] = tested on: HT29 colon
# [47] = tested on: K-562 leukemia
# [48] = tested on: KM12 colon
# [49] = tested on: SK-OV-3 ovarian
# [50] = tested on: ACHN renal
# [51] = tested on: MOLT-4 leukemia
# [52] = tested on: LOX IMVI melanoma
# [53] = tested on: UACC-257 melanoma
# [54] = tested on: XF 498 CNS
# [55] = tested on: A498 renal
# [56] = tested on: HOP-62 NSCLC
structure (smiles),measurement,setting,value
NCCN.NCCN.[Cl-].[O]=[Os+2]=[O],GI50,[1],> 100 µM
same,TGI,[1],> 100 µM
same,GI50,[2],> 100 µM
same,TGI,[2],> 100 µM
same,GI50,[3],> 100 µM
same,TGI,[3],> 100 µM
same,GI50,[4],> 100 µM
same,TGI,[4],> 100 µM
same,GI50,[5],> 100 µM
same,TGI,[5],> 100 µM
same,GI50,[6],> 100 µM
same,TGI,[6],> 100 µM
same,GI50,[7],71 µM
same,TGI,[7],> 100 µM
same,GI50,[8],> 100 µM
same,TGI,[8],> 100 µM
same,GI50,[9],> 100 µM
same,TGI,[9],> 100 µM
same,GI50,[10],> 100 µM
same,TGI,[10],> 100 µM
same,GI50,[11],> 100 µM
same,TGI,[11],> 100 µM
same,GI50,[12],> 100 µM
same,TGI,[12],> 100 µM
same,GI50,[13],> 100 µM
same,TGI,[13],> 100 µM
same,GI50,[14],> 100 µM
same,TGI,[14],> 100 µM
same,GI50,[15],> 100 µM
same,TGI,[15],> 100 µM
same,GI50,[16],> 100 µM
same,TGI,[16],> 100 µM
same,GI50,[17],> 100 µM
same,TGI,[17],> 100 µM
same,GI50,[18],> 100 µM
same,TGI,[18],> 100 µM
same,GI50,[19],> 100 µM
same,TGI,[19],> 100 µM
same,GI50,[20],12 µM
same,TGI,[20],28.8 µM
same,GI50,[21],> 100 µM
same,TGI,[21],> 100 µM
same,GI50,[22],> 100 µM
same,TGI,[22],> 100 µM
same,GI50,[23],67.4 µM
same,TGI,[23],> 100 µM
same,GI50,[24],> 100 µM
same,TGI,[24],> 100 µM
same,GI50,[25],> 100 µM
same,TGI,[25],> 100 µM
same,GI50,[26],> 100 µM
same,TGI,[26],> 100 µM
same,GI50,[27],> 100 µM
same,TGI,[27],> 100 µM
same,GI50,[28],> 100 µM
same,TGI,[28],> 100 µM
same,GI50,[29],> 100 µM
same,TGI,[29],> 100 µM
same,GI50,[30],> 100 µM
same,TGI,[30],> 100 µM
same,GI50,[31],> 100 µM
same,TGI,[31],> 100 µM
same,GI50,[32],> 100 µM
same,TGI,[32],> 100 µM
same,GI50,[33],> 100 µM
same,TGI,[33],> 100 µM
same,GI50,[34],> 100 µM
same,TGI,[34],> 100 µM
same,GI50,[35],> 100 µM
same,TGI,[35],> 100 µM
same,GI50,[36],> 100 µM
same,TGI,[36],> 100 µM
same,GI50,[37],> 100 µM
same,TGI,[37],> 100 µM
same,GI50,[38],> 100 µM
same,TGI,[38],> 100 µM
same,GI50,[39],> 100 µM
same,TGI,[39],> 100 µM
same,GI50,[40],> 100 µM
same,TGI,[40],> 100 µM
same,GI50,[41],> 100 µM
same,TGI,[41],> 100 µM
same,GI50,[42],> 100 µM
same,TGI,[42],> 100 µM
[N-]=[N+]=Nc1ccccc1Oc1ccccc1,TGI,[43],> 100 µM
same,TGI,[1],> 100 µM
same,TGI,[2],> 100 µM
same,TGI,[44],> 100 µM
same,TGI,[3],> 100 µM
same,TGI,[4],> 100 µM
same,TGI,[5],> 100 µM
same,TGI,[6],> 100 µM
same,TGI,[7],> 100 µM
same,TGI,[8],> 100 µM
same,TGI,[9],> 100 µM
same,TGI,[10],> 100 µM
same,TGI,[11],> 100 µM
same,TGI,[12],> 100 µM
same,TGI,[13],> 100 µM
same,TGI,[15],> 100 µM
same,TGI,[16],> 100 µM
same,TGI,[17],> 100 µM
same,TGI,[18],> 100 µM
same,TGI,[19],> 100 µM
same,TGI,[20],> 100 µM
same,TGI,[21],> 100 µM
same,TGI,[22],> 100 µM
same,TGI,[45],> 100 µM
same,TGI,[46],> 100 µM
same,TGI,[23],> 100 µM
same,TGI,[24],> 100 µM
same,TGI,[25],> 100 µM
same,TGI,[47],> 100 µM
same,TGI,[26],> 100 µM
same,TGI,[27],> 100 µM
same,TGI,[28],> 100 µM
same,TGI,[29],> 100 µM
same,TGI,[30],> 100 µM
same,TGI,[48],> 100 µM
same,TGI,[49],> 100 µM
same,TGI,[31],> 100 µM
same,TGI,[32],> 100 µM
same,TGI,[34],> 100 µM
same,TGI,[50],> 100 µM
same,TGI,[36],> 100 µM
same,TGI,[51],> 100 µM
same,TGI,[37],> 100 µM
same,TGI,[38],> 100 µM
same,TGI,[52],> 100 µM
same,TGI,[39],> 100 µM
same,TGI,[53],> 100 µM
same,TGI,[54],> 100 µM
same,TGI,[55],> 100 µM
same,TGI,[56],> 100 µM
same,TGI,[40],> 100 µM
same,TGI,[41],> 100 µM
same,TGI,[42],> 100 µM
